Legend:
[1] = biological target: T1, HCV NS5B RdRp genotype 1b (Hepatitis C virus genotype 1b, UniProt Q9WMX2); assay: Standard HCV NS5B RdRp enzyme assay; assay type: biochemical; conditions: standard method
T1 construct: The protein was expressed with an 18 amino acid C-terminal truncation to enhance the solubility; made in house; host or cells: E. coli BL21 (DE3), pET21a
Experimental: HCVNS5B RdRp cloning, expression, and purification. The cDNA encoding the NS5B protein of HCV, genotype 1b, was cloned into the pET21a expression vector. The protein was expressed with an 18 amino acid C-terminal truncation to enhance the solubility. The E. coli competent cell line BL21 (DE3) was used for expression of the protein. Cultures were grown at 37° C. for ˜4 hours until the cultures reached an optical density of 2.0 at 600 nm. The cultures were cooled to 20° C. and induced with 1 mM IPTG. Fresh ampicillin was added to a final concentration of 50 μg/ml and the cells were grown overnight at 20° C.
Cell pellets (3 L) were lysed for purification to yield 15-24 mgs of purified NS5B. The lysis buffer consisted of 20 mM Tris-HCl, pH 7.4, 500 mM NaCl, 0.5% triton X-100, 1 mM DTT, 1 mM EDTA, 20% glycerol, 0.5 mg/ml lysozyme, 10 mM MgCl2, 15 ug/ml deoxyribonuclease I, and Complete TM protease inhibitor tablets (Roche). After addition of the lysis buffer, frozen cell pellets were resuspended using a tissue homogenizer. To reduce the viscosity of the sample, aliquots of the lysate were sonicated on ice using a microtip attached to a Branson sonicator. The sonicated lysate was centrifuged at 100,000×g for 1 hr at 4° C. and filtered through a 0.2 μm filter unit (Corning).
The protein was purified using three sequential chromatography steps: Heparin sepharose CL-6B, polyU sepharose 4B, and Hitrap SP sepharose (Pharmacia). The chromatography buffers were identical to the lysis buffer but contained no lysozyme, deoxyribonuclease I, MgCl2 or protease inhibitor and the NaCl concentration of the buffer was adjusted according to the requirements for charging the protein onto the column. Each column was eluted with a NaCl gradient which varied in length from 5-50 column volumes depending on the column type. After the final chromatography step, the resulting purity of the enzyme is >90% based on SDS-PAGE analysis. The enzyme was aliquoted and stored at −80° C.
Standard HCV NS5B RdRp enzyme assay. HCV RdRp genotype Ib assays were run in a final volume of 60 μl in 96 well plates (Costar 3912). The assay buffer is composed of 20 mM Hepes, pH 7.5, 2.5 mM KCl, 2.5 mM MgCl2, 1 mM DTT, 1.6 U RNAse inhibitor (Promega N2515), 0.1 mg/ml BSA (Promega R3961), and 2% glycerol. All compounds were serially diluted (3-fold) in DMSO and diluted further in water such that the final concentration of DMSO in the assay was 2%. HCV RdRp genotype 1b enzyme was used at a final concentration of 28 nM. A polyA template was used at 6 nM, and a biotinylated oligo-dT12 primer was used at 180 nM final concentration. Template was obtained commercially (Amersham 27-4110). Biotinylated primer was prepared by Sigma Genosys. ^3H-UTP was used at 0.6 μCi (0.29 μM total UTP). Reactions were initiated by the addition of enzyme, incubated at 30° C. for 60 min, and stopped by adding 25 μl of 50 mM EDTA containing SPA beads (4 μg/μl, Amersham RPNQ 0007). Plates were read on a Packard Top Count NXT after >1 hr incubation at room temperature.
The IC50 values for compounds were determined using seven different [I]. IC50 values were calculated from the inhibition using the formula y=A+((B−A)/(1+((C/x)^D))). FRET Assay Preparation. To perform the HCV FRET screening assay, 96-well cell culture plates were used. The FRET peptide (Anaspec, Inc.) (Taliani et al., Anal. Biochem. 240:60-67 (1996), hereby incorporated by reference in its entirety) contains a fluorescence donor, EDANS, near one end of the peptide and an acceptor, DABCYL, near the other end. The fluorescence of the peptide is quenched by […] resonance energy transfer (RET) between the donor and the acceptor, but as the NS3 protease cleaves the peptide the products are released from RET quenching and the fluorescence of the donor becomes apparent. […]

HCV replicon = HCV replicon luciferase assay; assay type: cell-based, Hepatitis C virus; conditions: Hepatitis C virus, luciferase method; read-out: EC50
Experimental: To prepare plates, HCV replicon cells, with or without a Renilla luciferase reporter gene, were trypsinized and placed into each well of a 96-well plate with titrated test compounds added in columns 3 through 12; columns 1 and 2 contained a control compound (HCV protease inhibitor), and the bottom row contained cells without compound. The plates were then placed in a CO2 incubator at 37 degrees C.
Assays. Subsequent to addition of the test compounds described above (FRET Assay Preparation), at various times the plate was removed and Alamar blue solution (Trek Diagnostics, #00-100) was added per well as a measure of cellular toxicity. After reading in a Cytoflour 4000 instrument (PE Biosystems), plates were rinsed with PBS and then used for FRET assay by the addition of 30 ul of the FRET peptide assay reagent described above (FRET Assay Preparation) per well. The plate was then placed into the Cytoflour 4000 instrument which had been set to 340 excite/490 emission, automatic mode for 20 cycles and the plate read in a kinetic mode. Typically, the signal to noise using an endpoint analysis after the reads was at least three-fold. Alternatively, after Alamar blue reading, plates were rinsed with PBS, 50 ul of DMEM (high glucose) without phenol red was added and plates were then used for luciferase assay using the Promega Dual-Glo Luciferase Assay System.
Compound analysis was determined by quantification of the relative HCV replicon inhibition and the relative cytotoxicity values. To calculate cytoxicity values, the average Alamar Blue fluorescence signals from the control wells were set as 100% non-toxic. The individual signals in each of the compound test wells were then divided by the average control signal and multiplied by 100% to determine […]. To calculate the HCV replicon inhibition values, an average background value was obtained from the two wells containing the highest amount of HCV protease inhibitor at the end of the assay period. These numbers were similar to those obtained from naïve Huh-7 cells.
The background numbers were then subtracted from the average signal obtained from the control wells and this number was used as 100% activity. The individual signals in each of the compound test wells were then divided by the averaged control values after background subtraction and multiplied by 100% to determine percent activity. EC50 values for a protease inhibitor titration were calculated as the concentration which caused a 50% reduction in FRET or luciferase activity. The two numbers generated for the compound plate, percent cytoxicity and percent activity were used to determine compounds of interest for further analysis.

T1 sequence (Q9WMX2 2420-2992): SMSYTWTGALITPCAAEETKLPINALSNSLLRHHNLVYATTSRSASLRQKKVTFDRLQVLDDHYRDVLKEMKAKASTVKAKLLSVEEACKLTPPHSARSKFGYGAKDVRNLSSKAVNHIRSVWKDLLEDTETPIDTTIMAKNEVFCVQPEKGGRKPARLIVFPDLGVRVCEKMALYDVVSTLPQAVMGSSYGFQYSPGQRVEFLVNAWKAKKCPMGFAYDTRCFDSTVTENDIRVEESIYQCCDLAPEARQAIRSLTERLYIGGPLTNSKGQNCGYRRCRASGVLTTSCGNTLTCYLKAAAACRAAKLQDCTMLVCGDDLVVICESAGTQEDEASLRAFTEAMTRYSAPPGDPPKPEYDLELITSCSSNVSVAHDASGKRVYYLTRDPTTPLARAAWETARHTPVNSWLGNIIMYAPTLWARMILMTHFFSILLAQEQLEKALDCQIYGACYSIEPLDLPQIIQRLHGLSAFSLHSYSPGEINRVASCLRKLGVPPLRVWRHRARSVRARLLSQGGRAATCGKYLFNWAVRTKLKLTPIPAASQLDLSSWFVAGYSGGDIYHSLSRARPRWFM

Compound	IC50 [1] [µM]	EC50 (HCV replicon) [µM]
O=C(O)c1ccc2c(C3CCCCC3)c3n(c2c1)CC=Cc1cc(OCc2ccccc2)ccc1-3	> 1	0.1 to 1
O=C(O)c1ccc2c(C3CCCCC3)c3n(c2c1)CCCc1occc1-3	> 1	1 to 10
CC(C)(C)OC(=O)N1/C=C\CCn2c(c(C3CCCCC3)c3ccc(C(=O)O)cc32)-c2ccccc21	> 1	1 to 10
O=C(O)c1ccc2c(C3CCCCC3)c3n(c2c1)CCCCNc1ccccc1-3	> 1	0.1 to 1
O=C(O)c1ccc2c(C3CCCCC3)c3n(c2c1)CCCc1cc(O)ccc1-3	0.1 to 1	0.1 to 1
O=C(O)c1ccc2c(C3CCCCC3)c3n(c2c1)C(O)c1ccccc1-3 (stereo not shown)	> 1	> 10
COC1c2ccccc2-c2c(C3CCCCC3)c3ccc(C(=O)O)cc3n21 (stereo not shown)	> 1	> 10
O=C(O)c1ccc2c(C3CCCCC3)c3c4ccccc4cc(C(=O)O)n3c2c1	> 1	> 10
O=C(O)C1=Cc2ccccc2-c2c(C3CCCCC3)c3ccc(C(=O)O)cc3n2C1	0.1 to 1	> 10
CN(C)S(=O)(=O)NC(=O)c1ccc2c(C3CCCCC3)c3n(c2c1)CCCc1ccccc1-3	0.1 to 1	0.1 to 1
Cn1cnc(S(=O)(=O)NC(=O)c2ccc3c(C4CCCCC4)c4n(c3c2)CCCc2ccccc2-4)c1	> 1	1 to 10
O=C1Cn2c(c(C3CCCCC3)c3ccc(C(=O)NS(=O)(=O)C4CC4)cc32)-c2ccccc2N1	0.1 to 1	0.1 to 1
CCOC(=O)/C=C/c1ccc(NC(=O)C2(NC(=O)c3ccc4c(C5CCCCC5)c5n(c4c3)CCCc3ncccc3-5)CCCC2)cc1	> 1	< 0.1
O=C(O)/C=C/c1ccc(NC(=O)C2(NC(=O)c3ccc4c(C5CCCCC5)c5n(c4c3)CCCc3ncccc3-5)CCCC2)cc1	0.1 to 1	< 0.1
COC(=O)/C=C/c1ccc(NC(=O)C2(NC(=O)c3ccc4c(C5CCCCC5)c5n(c4c3)CCOc3cccnc3-5)CCCC2)cc1	> 1	0.1 to 1
O=C(O)/C=C/c1ccc(NC(=O)C2(NC(=O)c3ccc4c(C5CCCCC5)c5n(c4c3)CCOc3cccnc3-5)CCCC2)cc1	0.1 to 1	< 0.1
CC(C)(C)OC(=O)/C=C/c1ccc(NC(=O)C2(NC(=O)c3ccc4c(C5CCCCC5)c5n(c4c3)CC(=O)Nc3cccnc3-5)CCCC2)cc1	> 1	0.1 to 1
COC(=O)/C=C/c1ccc(NC(=O)C2(NC(=O)c3ccc4c(C5CCCCC5)c5n(c4c3)CCOc3ccccc3-5)CCCC2)cc1	> 1	
O=C(O)/C=C/c1ccc(NC(=O)C2(NC(=O)c3ccc4c(C5CCCCC5)c5n(c4c3)CCOc3ccccc3-5)CCCC2)cc1	0.1 to 1	< 0.1

Reference: patent US7348425B2, “Inhibitors of HCV replication” (Bristol-Myers Squibb Company, priority 2004, dated 2008)
